The supplement of paper PMC8617591

Tests used:
[1] = tested on: Mycobacterium tuberculosis Erdman (autoluminescent); experiment: total FIC50 (Loewe) at 50% inhibition, three-drug combination (log2); higher = more antagonistic
Procedure: (§1)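 DiaMOND equipotent three-drug combination dose responses (10 doses, 1.5- or 2-fold spacing, centred on IC90) against autoluminescent M. tuberculosis Erdman in 8 in vitro models. Read-out is OD600, or luminescence for the intracellular and dormancy models, normalised to untreated wells. Hill-fit Einf, AUC25 and GRinf are potency metrics; FIC50 and FIC90 are total Loewe fractional inhibitory concentrations as log2 (negative = synergy).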

[2] = tested on: Mycobacterium tuberculosis Erdman (autoluminescent); experiment: GRinf, maximum normalised growth rate inhibition (three-drug combination) (unitless (-1 to 1)); higher = less effect (negative = killing)
Procedure: as §1

[3] = tested on: Mycobacterium tuberculosis Erdman (autoluminescent); experiment: Einf, fitted maximum growth inhibition of three-drug combination (fraction); higher = stronger maximal inhibition
Procedure: as §1

[4] = tested on: Mycobacterium tuberculosis Erdman (autoluminescent); experiment: total FIC90 (Loewe) at 90% inhibition, three-drug combination (log2); higher = more antagonistic
Procedure: as §1

[5] = tested on: Mycobacterium tuberculosis Erdman (autoluminescent); experiment: AUC25, normalised area under dose response up to IC25 (three-drug combination) (fraction (0-1)); higher = more potent at low dose
Procedure: as §1

CC(C)/N=c1\cc2n(-c3ccc(Cl)cc3)c3ccccc3nc-2cc1Nc1ccc(Cl)cc1 [clofazimine] + COc1c(N2C[C@@H]3CCCN[C@@H]3C2)c(F)cc2c(=O)c(C(=O)O)cn(C3CC3)c12 [moxifloxacin] + CO[C@H]1/C=C/O[C@@]2(C)Oc3c(C)c(O)c4c(O)c(c(/C=N/N5CCN(C6CCCC6)CC5)c(O)c4c3C2=O)NC(=O)/C(C)=C\C=C\[C@H](C)[C@H](O)[C@@H](C)[C@@H](O)[C@@H](C)[C@H](OC(C)=O)[C@@H]1C [rifapentine]
Details	AUC25, [5]	Einf, [3]	GRinf, [2]	total FIC50, [1]	total FIC90, [4]
in vitro model: acidic pH 5.7, time point: constant (~7 days, model-specific)	0.0597	0.791	0.0664	0.757	–
in vitro model: acidic pH 5.7, time point: terminal (~4-5 doublings, model-specific)	0.0785	0.994	-0.157	0.662	0.776
in vitro model: intracellular J774, time point: constant = terminal	–	0.896	-0.177	–	0.705

Details	AUC25, [5]	Einf, [3]	GRinf, [2]	total FIC50, [1]	total FIC90, [4]
in vitro model: butyrate, time point: constant (~7 days, model-specific)	0.109	0.951	-0.179	0.683	0.815
in vitro model: butyrate, time point: terminal (~4-5 doublings, model-specific)	0.0865	0.976	-0.126	0.677	0.878
in vitro model: cholesterol 0.05 mM, time point: constant (~7 days, model-specific)	0.117	0.651	-0.0835	0.506	–
in vitro model: cholesterol 0.05 mM, time point: terminal (~4-5 doublings, model-specific)	0.106	0.826	0.0322	1.24	0.476
in vitro model: cholesterol-high 0.2 mM, time point: constant (~7 days, model-specific)	0.122	0.933	-0.651	0.36	0.939
in vitro model: cholesterol-high 0.2 mM, time point: terminal (~4-5 doublings, model-specific)	0.0999	1	-0.936	0.593	0.687
in vitro model: dormancy (butyrate + nitrate, low O2), time point: constant (~7 days, model-specific)	0.0884	0.916	0.189	0.695	0.16
in vitro model: dormancy (butyrate + nitrate, low O2), time point: terminal (~4-5 doublings, model-specific)	0.0815	0.985	-0.35	0.807	1.55
in vitro model: standard 7H9 glycerol, time point: constant = terminal	0.11	0.961	-0.153	0.103	0.69
in vitro model: valerate, time point: constant (~7 days, model-specific)	0.121	0.922	-0.0961	0.866	–
in vitro model: valerate, time point: terminal (~4-5 doublings, model-specific)	0.0636	0.937	0.0037	0.401	0.131

NNC(=O)c1ccncc1 [isoniazid] + COc1c(N2C[C@@H]3CCCN[C@@H]3C2)c(F)cc2c(=O)c(C(=O)O)cn(C3CC3)c12 [moxifloxacin] + CO[C@H]1/C=C/O[C@@]2(C)Oc3c(C)c(O)c4c(O)c(c(/C=N/N5CCN(C6CCCC6)CC5)c(O)c4c3C2=O)NC(=O)/C(C)=C\C=C\[C@H](C)[C@H](O)[C@@H](C)[C@@H](O)[C@@H](C)[C@H](OC(C)=O)[C@@H]1C [rifapentine]
Details	AUC25, [5]	Einf, [3]	GRinf, [2]	total FIC50, [1]	total FIC90, [4]
in vitro model: acidic pH 5.7, time point: constant (~7 days, model-specific)	0.0764	0.856	-0.0715	0.631	–
in vitro model: acidic pH 5.7, time point: terminal (~4-5 doublings, model-specific)	0.0472	0.974	-0.112	0.694	0.483
in vitro model: intracellular J774, time point: constant = terminal	–	0.952	-0.208	–	0.563

Details	AUC25, [5]	Einf, [3]	GRinf, [2]	total FIC50, [1]	total FIC90, [4]
in vitro model: butyrate, time point: constant (~7 days, model-specific)	0.0757	0.917	0.00281	0.673	0.414
in vitro model: butyrate, time point: terminal (~4-5 doublings, model-specific)	0.0584	0.965	0.00571	0.595	0.447
in vitro model: cholesterol 0.05 mM, time point: constant (~7 days, model-specific)	0.102	0.644	-0.051	0.862	–
in vitro model: cholesterol 0.05 mM, time point: terminal (~4-5 doublings, model-specific)	0.0878	0.88	-0.115	0.866	0.95
in vitro model: cholesterol-high 0.2 mM, time point: constant (~7 days, model-specific)	0.0823	0.922	-0.472	0.636	–
in vitro model: cholesterol-high 0.2 mM, time point: terminal (~4-5 doublings, model-specific)	0.0703	1	-0.778	0.916	0.976
in vitro model: dormancy (butyrate + nitrate, low O2), time point: constant (~7 days, model-specific)	0.0676	0.866	0.268	0.401	0.429
in vitro model: dormancy (butyrate + nitrate, low O2), time point: terminal (~4-5 doublings, model-specific)	0.0486	0.97	-0.0791	0.655	0.61
in vitro model: standard 7H9 glycerol, time point: constant = terminal	0.0438	0.911	0.0464	0.774	0.752
in vitro model: valerate, time point: constant (~7 days, model-specific)	0.0564	0.866	-0.0209	0.608	–
in vitro model: valerate, time point: terminal (~4-5 doublings, model-specific)	0.0386	0.933	-0.00377	0.659	0.621

CC(C)/N=c1\cc2n(-c3ccc(Cl)cc3)c3ccccc3nc-2cc1Nc1ccc(Cl)cc1 [clofazimine] + O=[N+]([O-])c1cn2c(n1)OC[C@@H](OCc1ccc(OC(F)(F)F)cc1)C2 [pretomanid] + NC(=O)c1cnccn1 [pyrazinamide]
Details	AUC25, [5]	Einf, [3]	GRinf, [2]	total FIC50, [1]	total FIC90, [4]
in vitro model: acidic pH 5.7, time point: constant (~7 days, model-specific)	0.116	0.799	-0.189	-0.0503	–
in vitro model: acidic pH 5.7, time point: terminal (~4-5 doublings, model-specific)	0.0855	0.963	-0.286	-0.211	-0.383
in vitro model: intracellular J774, time point: constant = terminal	–	1	-0.589	–	0.069

Details	AUC25, [5]	Einf, [3]	GRinf, [2]	total FIC50, [1]	total FIC90, [4]
in vitro model: butyrate, time point: constant (~7 days, model-specific)	0.117	0.927	-0.101	-0.205	1.93
in vitro model: butyrate, time point: terminal (~4-5 doublings, model-specific)	0.0918	0.967	-0.0731	-0.348	0.119
in vitro model: cholesterol 0.05 mM, time point: constant (~7 days, model-specific)	0.136	0.671	-0.153	–	–
in vitro model: cholesterol 0.05 mM, time point: terminal (~4-5 doublings, model-specific)	0.108	0.917	-0.206	1.04	–
in vitro model: cholesterol-high 0.2 mM, time point: constant (~7 days, model-specific)	0.0983	0.866	-0.131	0.247	–
in vitro model: cholesterol-high 0.2 mM, time point: terminal (~4-5 doublings, model-specific)	0.0869	0.997	-0.572	0.565	0.223
in vitro model: dormancy (butyrate + nitrate, low O2), time point: constant (~7 days, model-specific)	0.0942	0.933	0.139	-1.02	-2
in vitro model: dormancy (butyrate + nitrate, low O2), time point: terminal (~4-5 doublings, model-specific)	0.0486	0.989	-0.2	-0.553	-0.326
in vitro model: standard 7H9 glycerol, time point: constant = terminal	0.128	0.947	-0.335	-0.2	–
in vitro model: valerate, time point: constant (~7 days, model-specific)	0.125	0.874	-0.0963	0.359	–
in vitro model: valerate, time point: terminal (~4-5 doublings, model-specific)	0.0562	0.928	0.0185	0.629	1.17

COc1nc2ccc(Br)cc2cc1[C@@H](c1ccccc1)[C@@](O)(CCN(C)C)c1cccc2ccccc12 [bedaquiline] + CC[C@@H](CO)NCCN[C@@H](CC)CO [ethambutol] + NC(=O)c1cnccn1 [pyrazinamide]
Details	AUC25, [5]	Einf, [3]	GRinf, [2]	total FIC50, [1]	total FIC90, [4]
in vitro model: acidic pH 5.7, time point: constant (~7 days, model-specific)	0.0897	0.873	-0.571	-0.0886	–
in vitro model: acidic pH 5.7, time point: terminal (~4-5 doublings, model-specific)	0.0657	0.97	-0.4	0.412	-0.299
in vitro model: intracellular J774, time point: constant = terminal	–	0.975	-0.486	–	-0.0128

Details	AUC25, [5]	Einf, [3]	GRinf, [2]	total FIC50, [1]	total FIC90, [4]
in vitro model: butyrate, time point: constant (~7 days, model-specific)	0.0804	0.958	-0.23	0.369	–
in vitro model: butyrate, time point: terminal (~4-5 doublings, model-specific)	0.0692	0.98	-0.518	0.327	-0.0291
in vitro model: cholesterol 0.05 mM, time point: constant (~7 days, model-specific)	0.0893	0.735	-0.275	–	–
in vitro model: cholesterol 0.05 mM, time point: terminal (~4-5 doublings, model-specific)	0.113	0.942	-0.531	1.2	–
in vitro model: cholesterol-high 0.2 mM, time point: constant (~7 days, model-specific)	0.0376	0.954	-0.425	1.15	–
in vitro model: cholesterol-high 0.2 mM, time point: terminal (~4-5 doublings, model-specific)	0.0549	1	-0.723	1	1.04
in vitro model: dormancy (butyrate + nitrate, low O2), time point: constant (~7 days, model-specific)	0.11	0.818	0.489	0.665	–
in vitro model: dormancy (butyrate + nitrate, low O2), time point: terminal (~4-5 doublings, model-specific)	0.106	0.99	-0.119	0.467	0.729
in vitro model: standard 7H9 glycerol, time point: constant = terminal	0.0685	0.924	0.0247	0.382	–
in vitro model: valerate, time point: constant (~7 days, model-specific)	0.0945	0.901	-0.0908	0.734	–
in vitro model: valerate, time point: terminal (~4-5 doublings, model-specific)	0.0602	0.954	-0.0443	0.806	-0.297

CC[C@@H](CO)NCCN[C@@H](CC)CO [ethambutol] + CC(=O)NC[C@H]1CN(c2ccc(N3CCOCC3)c(F)c2)C(=O)O1 [linezolid] + CO[C@H]1/C=C/O[C@@]2(C)Oc3c(C)c(O)c4c(O)c(c(/C=N/N5CCN(C6CCCC6)CC5)c(O)c4c3C2=O)NC(=O)/C(C)=C\C=C\[C@H](C)[C@H](O)[C@@H](C)[C@@H](O)[C@@H](C)[C@H](OC(C)=O)[C@@H]1C [rifapentine]
Details	AUC25, [5]	Einf, [3]	GRinf, [2]	total FIC50, [1]	total FIC90, [4]
in vitro model: acidic pH 5.7, time point: constant (~7 days, model-specific)	0.0936	0.872	-0.0867	0.452	–
in vitro model: acidic pH 5.7, time point: terminal (~4-5 doublings, model-specific)	0.0542	0.967	-0.0664	1.01	0.595
in vitro model: intracellular J774, time point: constant = terminal	–	0.962	-0.261	–	-1.64

Details	AUC25, [5]	Einf, [3]	GRinf, [2]	total FIC50, [1]	total FIC90, [4]
in vitro model: butyrate, time point: constant (~7 days, model-specific)	0.0551	0.886	0.0937	0.371	–
in vitro model: butyrate, time point: terminal (~4-5 doublings, model-specific)	0.0436	0.94	0.0645	0.251	-0.559
in vitro model: cholesterol 0.05 mM, time point: constant (~7 days, model-specific)	0.146	0.726	-0.109	-0.662	–
in vitro model: cholesterol 0.05 mM, time point: terminal (~4-5 doublings, model-specific)	0.154	0.936	-0.279	-1.58	–
in vitro model: cholesterol-high 0.2 mM, time point: constant (~7 days, model-specific)	0.102	0.996	-0.732	0.505	–
in vitro model: cholesterol-high 0.2 mM, time point: terminal (~4-5 doublings, model-specific)	0.103	1	-0.843	0.495	1.02
in vitro model: dormancy (butyrate + nitrate, low O2), time point: constant (~7 days, model-specific)	0.124	0.869	0.279	0.075	–
in vitro model: dormancy (butyrate + nitrate, low O2), time point: terminal (~4-5 doublings, model-specific)	0.131	0.996	-0.349	-0.164	1.09
in vitro model: standard 7H9 glycerol, time point: constant = terminal	0.0503	0.887	0.155	0.486	–
in vitro model: valerate, time point: constant (~7 days, model-specific)	0.0575	0.828	0.0988	0.319	–
in vitro model: valerate, time point: terminal (~4-5 doublings, model-specific)	0.0307	0.917	0.0733	0.429	–
